Data set [1] has as its target T1, CXCR-4 transfected U87 cell line (U87.CXCR4) (Homo sapiens, UniProt P61073).
T1 construct: expressed in transfected cells; host or cells: U87 (U87.CXCR4)
Description: Intracellular CXCL-12-induced calcium mobilization assay (FLIPR). The data set is classed as cell-based. To be noted: U87.CXCR4 cells; CXCL-12 25-50 ng/mL; compound added 15 min before; read-out: IC50 CXCL-12 Ca^2+ flux U87.CXCR4+. Here is the method:
Example 36: REGA Screening Assay
Intracellular CXCL-12-Induced Calcium Mobilization Assay
Intracellular calcium mobilization induced by chemokines or chemokine-derived peptides were evaluated using a calcium responsive fluorescent probe and a FLIPR system. The CXCR-4 transfected U87 cell line (U87.CXCR4) cells were seeded in gelatine-coated black-wall 96-well plates at 20,000 cells per well and incubated for 12 hours. Cells were then loaded with the fluorescent calcium probe Fluo-2 acetoxymethyl at 4 μM final concentration in assay buffer (Hanks' balanced salt solution with 20 mM HEPES buffer and 0.2% bovine serum albumin, pH 7.4) for 45 min at 37° C. The intracellular calcium mobilization induced by the CXCL-12 (25-50 ng/mL) was then measured at 37° C. by monitoring the fluorescence as a function of time in all the wells simultaneously using a fluorometric imaging plate reader (FLIPR Tetra, Molecular Devices).
Background: A change in cytosolic calcium serves as a functional read-out for many receptors and channels.

Data set [2] has as its target T2, Jurkat cells expressing CXCR4 (Homo sapiens, UniProt P61073).
T2 construct: endogenous in cells; host or cells: Jurkat
The data set can be described thus: Chemokine (CXCL12-AF647) binding inhibition assay. To be noted: CXCL12-AF647 25 ng/mL, read-out: IC50 CXCL-12 binding Jurkat. Here is the method:
Chemokine (CXCL12-AF647) Binding Inhibition Assay
Jurkat cells expressing CXCR4 were washed once with assay buffer (Hanks' balanced salt solution with 20 mM HEPES buffer and 0.2% bovine serum albumin, pH 7.4) and then incubated for 15 min at room temperature with the test compounds diluted in assay buffer at dose-dependent concentrations. Subsequently, CXCL12-AF647 (25 ng/mL) was added to the compound-incubated cells. The cells were incubated for 30 min at room temperature. Thereafter, the cells were washed twice in assay buffer, fixed in 1% paraformaldehyde in PBS, and analyzed on the FL4 channel of a FACSCalibur flow cytometer equipped with a 635-nm red diode laser (Becton Dickinson, San Jose, Calif., USA).
The percentages of inhibition of CXCL12-AF647 binding were calculated according to the formula: [1−((MFI−MFINC)/(MFIPC−MFINC))]×100 where MFI is the mean fluorescence intensity of the cells incubated with CXCL12-AF647 in the presence of the inhibitor, MFINC is the mean fluorescence intensity measured in the negative control (i.e., autofluorescence of unlabeled cells), and MFIPC is the mean fluorescence intensity of the positive control (i.e., cells exposed to CXCL12-AF647 alone).

Another data set in a line: in vitro. To be noted: human, Caco-2, pH 7.4. On the procedure: Example 37: Caco-2 Permeability Assay
The goal of this assay was to evaluate the intestinal absorption potential of drug candidates using Caco-2 cell lines.
HBSS buffer with 0.3% DMSO and 5 μM LY: add 150 μL DMSO and 50 μL LY (5 mM) into 50 ml HBSS buffer (pH 7.4).
HBSS buffer with 0.1% DMSO and 5 μM LY: add 50 μL DMSO and 50 μL LY (5 mM) into 50 mL HBSS buffer (pH 7.4).
HBSS buffer with 0.3% DMSO: add 150 μL DMSO into 50 ml HBSS buffer (pH 7.4).
HBSS buffer with 0.1% DMSO: add 50 μL DMSO into 50 ml HBSS buffer (pH 7.4).
Prepare HBSS buffer with 0.4% DMSO: add 200 μL DMSO into 50 ml HBSS buffer (pH 7.4).
Prepare HBSS buffer with 0.4% DMSO and 5 μM LY: add 200 μL DMSO and 50 μL LY (5 mM) into 50 ml HBSS buffer (pH 7.4).
4. Measure TEER Take cell culture plate out of incubator, wash the cell monolayers with HBSS buffer, and then measure TEER values at Rm temperature. 5. Centrifuge Centrifuge the compound solution (from step 3) at 4000 rpm for 5 min before loading to donor chambers. 6. Dosing Add solution based on the volumes listed in the following table (make sure to take extra 100 μL of donor sample for T0 as Backup).
7. Apical LYT0 samples To determine LY concentration in the apical chember, take 100 μL sample from apical chambers into an opaque plate for LYT0. 8. Prewarm Prewarm apical and basolateral plates at 37° C. for about 5 min, then begin transport by placing the apical plate onto basolateral plate. 9. Incubation Keep the plates in incubator at 37° C. for 90 min. 10. Standard Curve preparation
11. Transport termination Separate the apical plate from the basolateral plate after 90-min incubation.
Receiver sample: 60 μL of receiver sample+60 μL ACN with IS (Osalmid or Imipramine)
Study details: Test concentration 10 μM
Test systems: Caco-2/HBSS solution
Incubation conditions: 0, 90 min at 37° C.
Sample size: Duplicates (n=2)
Bioanalytical method: LC-MS/MS
For Millicell-24 Cell Culture Plates: surface area of the membrane=0.7 cm^2, VA=0.8 mL (A-to-B) or 0.4 mL (B-to-A)
1. Papp values were calculated based on calculated concentrations.
The compound numbers correspond to the compound numbers in Table 1.

Usually IC50 stands for the concentration at which inhibition is half-maximal. As usually defined, the Papp A→B is the apparent permeability from the apical to the basolateral side of a cell layer. Read a high Papp A→B as ready permeation. Broadly, the Papp B→A is how fast a substance crosses the layer from the basolateral side. By efflux ratio is commonly meant a quotient of directional permeabilities that is used to spot active efflux.

T2 sequence (P61073 whole entry): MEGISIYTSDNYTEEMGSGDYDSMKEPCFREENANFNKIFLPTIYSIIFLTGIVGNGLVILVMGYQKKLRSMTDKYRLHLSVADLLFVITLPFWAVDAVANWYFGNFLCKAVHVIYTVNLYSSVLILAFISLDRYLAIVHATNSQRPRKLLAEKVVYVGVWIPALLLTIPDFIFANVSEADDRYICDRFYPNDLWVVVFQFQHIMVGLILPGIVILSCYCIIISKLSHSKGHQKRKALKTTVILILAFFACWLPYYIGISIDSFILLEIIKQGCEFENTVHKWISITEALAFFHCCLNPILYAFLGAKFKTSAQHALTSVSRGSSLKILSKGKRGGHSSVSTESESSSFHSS
T1 sequence (P61073 whole entry): as above

Consider `Cc1cccnc1[C@@H]1CCC[C@H](c2nc3cccc(N4CCN(C)CC4)c3n2C)N1C` [I-35], for which the 50% inhibitory concentration (IC50) in data set [1] lay in the range of 0.01 to 100 nM. Further, the IC50 in data set [2] lay within 0.01 to 100 nM. In addition, in the data set “in vitro”, the Papp A→B at 90 min, 10 μM was 0.1 to 10 ×10⁻⁶ cm/s; the basolateral-to-apical permeability (Papp B→A) at 90 min, 10 μM fell in the range of 0.1 to 10 ×10⁻⁶ cm/s; the efflux ratio at 90 min, 10 μM fell in the range of 0.1 to 10.
Turning to `Cc1cccnc1[C@@H]1CCC[C@H](c2nc3cccc(N4CCC(N(C)C)CC4)c3[nH]2)N1C` [I-67], the concentration for half-maximal inhibition (IC50) in data set [1] lay within 0.01 to 100 nM. Also, the half-maximal inhibitory concentration (IC50) in data set [2] is 0.01 to 100 nM. For the same compound, in the data set “in vitro”, the apparent permeability from apical to basolateral (Papp A→B) at 90 min, 10 μM is 0.1 to 10 ×10⁻⁶ cm/s; the Papp B→A at 90 min, 10 μM lay in the range of 10 to 30 ×10⁻⁶ cm/s; the efflux ratio at 90 min, 10 μM fell in the range of 0.1 to 10.
In the case of `Cc1cccnc1[C@@H]1CCC[C@H](c2nc3ccccc3n2CCCCN2CCN(C)CC2)N1C` [I-40], the IC50 in data set [1] is ≥ 1000 nM. Moreover, the IC50 in data set [2] fell in the range of 100 to 1000 nM. For the same compound, in the data set “in vitro”, the Papp A→B at 90 min, 10 μM was 0.1 to 10 ×10⁻⁶ cm/s; the Papp B→A at 90 min, 10 μM was in the range of 10 to 30 ×10⁻⁶ cm/s; the efflux ratio at 90 min, 10 μM lay in the range of 0.1 to 10.
Consider `CN1CCN(c2cccc3nc([C@H]4CCC[C@@H](c5nccc6ccccc56)N4C)[nH]c23)CC1` [I-88], for which, in data set [1], the half-maximal inhibitory concentration (IC50) fell in the range of 0.01 to 100 nM. Moreover, the half-inhibitory concentration (IC50) in data set [2] was 0.01 to 100 nM. In addition, in “in vitro”, the apparent permeability from apical to basolateral (Papp A→B) at 90 min, 10 μM is 0.1 to 10 ×10⁻⁶ cm/s; the apparent permeability from basolateral to apical (Papp B→A) at 90 min, 10 μM lay within 0.1 to 10 ×10⁻⁶ cm/s; the efflux ratio at 90 min, 10 μM was 0.1 to 10.
Regarding `Cc1ccnnc1[C@@H]1CCC[C@H](c2nc3cccc(N4CCN(C)CC4)c3[nH]2)N1C` [I-84], the IC50 in data set [1] was ≥ 1000 nM. Moreover, the 50% inhibitory concentration (IC50) in data set [2] was 100 to 1000 nM. Also, in “in vitro”, the apparent permeability from apical to basolateral (Papp A→B) at 90 min, 10 μM is 0.1 to 10 ×10⁻⁶ cm/s; the Papp B→A at 90 min, 10 μM was 10 to 30 ×10⁻⁶ cm/s; the efflux ratio at 90 min, 10 μM is 10 to 30.
With `Cc1cccnc1[C@@H]1CCC[C@H](c2nc3ccccc3n2CCCCN2CCOCC2)N1C` [I-39], the IC50 in data set [1] was ≥ 1000 nM. Further, the IC50 in data set [2] fell in the range of 100 to 1000 nM. In the data set “in vitro”, the apparent permeability from apical to basolateral (Papp A→B) at 90 min, 10 μM lay within 10 to 30 ×10⁻⁶ cm/s; the Papp B→A at 90 min, 10 μM was in the range of 10 to 30 ×10⁻⁶ cm/s; the efflux ratio at 90 min, 10 μM was in the range of 0.1 to 10.
As for `CN1CCC(n2c([C@H]3CCC[C@@H](c4ncccc4Cl)N3)nc3ccccc32)CC1` [I-135], the IC50 in data set [1] lay in the range of 0.01 to 100 nM. For the same compound, in data set [2], the 50% inhibitory concentration (IC50) is 0.01 to 100 nM. Besides, in the data set “in vitro”, the Papp A→B at 90 min, 10 μM was 10 to 30 ×10⁻⁶ cm/s; the Papp B→A at 90 min, 10 μM lay within 10 to 30 ×10⁻⁶ cm/s; the efflux ratio at 90 min, 10 μM lay in the range of 0.1 to 10.
Take `Cc1cccnc1[C@@H]1CCC[C@H](c2nccn2C2CCN(C)CC2)N1` [I-171]: the concentration for half-maximal inhibition (IC50) in data set [1] is ≥ 1000 nM. For the same compound, the IC50 in data set [2] lay in the range of 0.01 to 100 nM. Moreover, in the data set “in vitro”, the apical-to-basolateral permeability (Papp A→B) at 90 min, 10 μM is 0.1 to 10 ×10⁻⁶ cm/s; the Papp B→A at 90 min, 10 μM is 10 to 30 ×10⁻⁶ cm/s; the efflux ratio at 90 min, 10 μM lay within 0.1 to 10.
In the same order, the values of `Cc1cccnc1[C@@H]1CCC[C@H](c2nccn2C2CCN(C)CC2)N1C` [I-168] are 0.01 to 100 nM, 0.01 to 100 nM, 0.1 to 10 ×10⁻⁶ cm/s, 10 to 30 ×10⁻⁶ cm/s and 0.1 to 10.
On to `Cc1cccnc1[C@@H]1CCC[C@H](c2nc3c(N4CCN(C)CC4)cccc3n2C)N1C` [I-36], for which the half-inhibitory concentration (IC50) in data set [1] is ≥ 1000 nM. Besides, in data set [2], the IC50 is ≥ 1000 nM. Besides, in “in vitro”, the apical-to-basolateral permeability (Papp A→B) at 90 min, 10 μM lay within 10 to 30 ×10⁻⁶ cm/s; the Papp B→A at 90 min, 10 μM fell in the range of 10 to 30 ×10⁻⁶ cm/s; the efflux ratio at 90 min, 10 μM fell in the range of 0.1 to 10.
As to `Cc1cccnc1[C@@H]1CCC[C@H](c2nc3cccc(N4C[C@@H](C)N(C)[C@@H](C)C4)c3[nH]2)N1C` [I-54], in data set [1], the 50% inhibitory concentration (IC50) lay in the range of 0.01 to 100 nM. In data set [2], the IC50 lay in the range of 0.01 to 100 nM. In addition, in the data set “in vitro”, the Papp A→B at 90 min, 10 μM lay in the range of 10 to 30 ×10⁻⁶ cm/s; the Papp B→A at 90 min, 10 μM is 10 to 30 ×10⁻⁶ cm/s; the efflux ratio at 90 min, 10 μM lay in the range of 0.1 to 10.
For `CN1CCN(c2cccc3nc([C@H]4CCC[C@@H](c5ncccc5Br)N4C)[nH]c23)CC1` [I-28, 2-((2R,6S)-6-(3-bromopyridin-2-yl)-1-methylpiperidin-2-yl)-7-(4-methylpiperazin-1-yl)-1H-benzo[d]imidazole], the IC50 in data set [1] is 100 to 1000 nM. Moreover, the IC50 in data set [2] is 0.01 to 100 nM. Further, in “in vitro”, the Papp A→B at 90 min, 10 μM is 0.1 to 10 ×10⁻⁶ cm/s; the Papp B→A at 90 min, 10 μM was in the range of 0.1 to 10 ×10⁻⁶ cm/s; the efflux ratio at 90 min, 10 μM is 0.1 to 10.
